Assay results reported in paper PMC10279719 (Nature Communications, 2023).

Assays:
CrkII^NSH3 [1] = target: T1, CrkII^NSH3 (Homo sapiens, UniProt P46108); assay: ITC, CrkII NSH3 titrated into PEAK3 tandem peptides (binary) or peptide:14-3-3γ complexes (ternary); format: binding; conditions: CrkII NSH3 (400 µM, syringe) into peptide pre-saturated with 14-3-3γ (16.8 µM, cell), 25 °C, HEPES pH 7.4, mean ± S.E.M. of N = 4 (pS69) or N = 1 (non-phosphorylated), read-out: ITC KD, CrkII N-SH3, ternary
T1 construct: CrkII^NSH3; UniProt P46108-1, residues 134–191; 8-His tag with TEV protease cleavage site (N); made in house; host or cells: E. coli C41 (DE3)
Description: (§1) ITC binding experiments were conducted using a MicroCal iTC200 instrument (Malvern Instruments). Titrations were conducted at 25 °C in reverse mode (peptide in cell, protein in syringe) and consisted of 19 injections of 2 μl […] at a rate of 2 s μl^−1 at 90 s time intervals, whilst stirring at 1000 rpm. An initial injection of 0.4 μl protein was made and discarded during data analysis. Proteins (14-3-3ɣ or CrkII^NSH3) were first dialyzed overnight at 4 °C into ITC buffer (20 mM HEPES pH 7.4, 150 mM NaCl, 1 mM TCEP), filtered and degassed under vacuum. […] Following the first titration, excess solution was removed from the cell, and the syringe was washed and dried. […] All data were fitted to a single binding site model to obtain the stoichiometry (N), dissociation constant (KD) and the enthalpy of binding (ΔH), using MicroCal PEAQ-ITC Analysis software (v.1.41).

14-3-3γ [2] = target: T2, 14-3-3γ (Homo sapiens, UniProt P61981); assay: SPR, PEAK peptides binding to immobilised 14-3-3γ; conditions: peptide analyte over amine-coupled 14-3-3γ (CM5), Biacore S200, HBS-TP pH 7.4, 20 °C, steady-state 1:1 fit, mean ± S.E.M.
T2 construct: 14-3-3γ (UniProt P61981-1; residues 1–247); 8-His tag with TEV protease cleavage site (N); made in house; host or cells: E. coli C41 (DE3)
T2 sequence (P61981 1-247): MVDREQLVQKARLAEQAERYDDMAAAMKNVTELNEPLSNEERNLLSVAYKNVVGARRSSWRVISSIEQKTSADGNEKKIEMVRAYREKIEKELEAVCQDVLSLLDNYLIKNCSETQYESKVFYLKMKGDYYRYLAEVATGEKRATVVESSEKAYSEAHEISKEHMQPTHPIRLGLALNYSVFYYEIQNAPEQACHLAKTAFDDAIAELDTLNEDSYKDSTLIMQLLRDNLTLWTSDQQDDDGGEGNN
Description: (§2) Purified […]3 was diluted to 5 μg ml^-1 in 10 mM sodium acetate pH 4.0 and amine coupled at 25 °C to a Series S CM5 sensor chip, in HBS-N running buffer (20 mM HEPES pH 7.4, 150 mM NaCl) to a final immobilization level of 1100-1400 response units (RU), followed by surface deactivation using 1 M ethanolamine. A blank activation/deactivation was used for the reference surface. […] Samples were injected in a multi-cycle run (flow rate 30 μl min^-1, contact time of 60 s, dissociation 120 s) without regeneration. Sensorgrams were double referenced, and steady-state binding data fitted using a 1:1 binding model using Biacore S200 Evaluation Software (Cytiva, v. 1.1). […] Representative sensorgrams and fitted dissociation constant (KD) values, depicted as mean ± S.E.M.

14-3-3η = target: T3, 14-3-3η (Homo sapiens, UniProt Q04917); assay: SPR, PEAK tandem peptides binding to immobilised 14-3-3η; conditions: peptide analyte over amine-coupled 14-3-3η (CM5); Biacore S200, HBS-TP pH 7.4, 20 °C; steady-state 1:1 fit; mean ± S.E.M.; read-out: SPR KD, 14-3-3η (eta)
T3 construct: 14-3-3η (UniProt Q04917-1; residues 1–246); 8-His tag with TEV protease cleavage site (N); made in house; host or cells: E. coli C41 (DE3)
T3 sequence (Q04917 1-246): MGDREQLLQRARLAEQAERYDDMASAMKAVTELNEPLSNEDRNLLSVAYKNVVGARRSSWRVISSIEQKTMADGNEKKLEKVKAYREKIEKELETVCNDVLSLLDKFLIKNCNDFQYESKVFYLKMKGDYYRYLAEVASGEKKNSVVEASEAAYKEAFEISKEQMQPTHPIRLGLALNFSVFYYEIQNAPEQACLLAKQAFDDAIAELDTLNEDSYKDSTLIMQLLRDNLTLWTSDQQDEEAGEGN
Description: as §2

14-3-3γ [3] = target: T2, 14-3-3γ; assay: ITC, 14-3-3γ titrated into PEAK3 tandem peptides; format: binding; conditions: binary, 14-3-3γ (syringe) into peptide (20 µM, cell), 25 °C, 20 mM HEPES pH 7.4, 150 mM NaCl, 1 mM TCEP, single-site fit, mean ± S.E.M. of N = 4 (N = 1 for non-phosphorylated peptide)
Description: as §1

CrkII^NSH3 [4] = target: T1, CrkII^NSH3; assay: SPR, PEAK PRM and tandem peptides binding to immobilised CrkII NSH3 domain; conditions: peptide analyte over amine-coupled CrkII NSH3 (CM5); Biacore S200, HBS-TP pH 7.4, 20 °C; steady-state 1:1 fit; mean ± S.E.M. (N ≥ 3) or SD (N = 2); read-out: SPR KD, CrkII N-SH3
Description: SPR binding studies of PEAK PRM peptides to CrkII^NSH3 were performed using a Biacore S200 Instrument (Cytiva). Purified CrkII^NSH3 was diluted to 5 µg ml^−1 in 10 mM sodium acetate pH 4.0 and amine coupled at 25 °C to a Series S CM5 sensor chip, in HBS-N running buffer (20 mM HEPES pH 7.4, 150 mM NaCl) to a final immobilization level of 1100–1400 response units (RU), followed by surface deactivation using 1 M ethanolamine. A blank activation/deactivation was used for the reference surface. Peptide binding studies were performed at 20 °C in HBS-TP running buffer (20 mM HEPES pH 7.4, 150 mM NaCl, 1 mM TCEP, 0.005% (v/v) Tween-P20). […] Peptide stocks were further diluted to in running buffer to 10 or 20 µM and prepared as a 11-point concentration series (2-fold serial dilution, […] for PEAK PRM peptides, or 20 µM–20 nM for PEAK tandem motif peptides). Samples were injected in a multi-cycle run (flow rate 30 µl min^−1, contact time of 60 s, dissociation 120 s) without regeneration. Sensorgrams were double referenced, and steady-state binding data fitted using a 1:1 binding model using Biacore S200 Evaluation Software (Cytiva, v. 1.1).

T1 sequence (P46108 134-191): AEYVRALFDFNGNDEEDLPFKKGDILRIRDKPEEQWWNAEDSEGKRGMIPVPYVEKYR

`CC[C@H](C)[C@H](NC(=O)[C@H](CCCCN)NC(=O)[C@H](CCCCN)NC(=O)[C@@H]1CCCN1C(=O)[C@H](CC(C)C)NC(=O)[C@@H]1CCCN1C(=O)[C@@H]1CCCN1C(=O)[C@@H]1CCCN1C(=O)[C@H](CC(C)C)NC(=O)[C@@H]1CCCN1C(C)=O)C(=O)N[C@@H](CC(C)C)C(=O)N[C@H](C(=O)N[C@@H](CCCNC(=N)N)C(=O)N[C@H](C(=O)N[C@@H](CCC(N)=O)C(=O)N[C@@H](CO)C(=O)N[C@@H](CC(C)C)C(=O)N1CCC[C@H]1C(=O)N[C@H](C(=O)N[C@@H](CCCNC(=N)N)C(=O)N[C@@H](CCCNC(=N)N)C(N)=O)[C@@H](C)O)[C@@H](C)O)[C@@H](C)O` (single isomer, unassigned) [PEAK3^tandem] was tested, and the Kd (CrkII^NSH3 [1]) was 700 nM, the “SPR KD, 14-3-3γ (gamma)” value (14-3-3γ [2]) was “no appreciable binding” and the “SPR KD, 14-3-3γ (gamma)” value (14-3-3γ [2]; 54–74) was “No binding”. For the same compound, the Kd (14-3-3γ [2]; read-out: SPR KD, 14-3-3γ (gamma)) was over 100000 nM, the Kd (14-3-3η) was over 100000 nM and the “ITC KD, 14-3-3γ” value (14-3-3γ [3]) was “no appreciable binding”. The “ITC KD, 14-3-3γ” value (14-3-3γ [3]; 54–74) was “No binding”, the “ITC KD, 14-3-3γ” value (14-3-3γ [3]; listed as PEAK3 tandem) was “no binding” and the Kd (CrkII^NSH3 [4]) was 600 ± 20 nM.
